From patent US7754759B2, “Arylsulfonyl chromans as 5-HT6 inhibitors” (Roche Palo Alto LLC, priority 2005, dated 2010) come the findings set out here.

As usually defined, the melting point is the temperature of the solid-liquid transition.

The structures appear in SMILES notation. Where a name gives a salt, the structure may show the parent alone.

In data set [1] the target is T1, recombinant human 5-HT6 receptor (Homo sapiens, UniProt P50406).
T1 construct: expressed in transfected cells
The data set is described as follows: Radioligand binding, [3H]LSD competition at 5-HT6 receptor. The conditions noted are these: membranes of HEK293 cells expressing recombinant human 5-HT6 receptor, 37° C., read-out: pKi for the 5-HT6 receptor (converted). Here is the method: (§1) The binding activity of compounds of this invention in vitro was determined as follows. Duplicate determinations of 5-HT6 ligand affinity were made by competing for binding of [^3H]LSD in cell membranes derived from HEK293 cells stably expressing recombinant human 5-HT6 receptor. Duplicate determinations of 5-HT2A ligand affinity were made by competing for binding of [^3H]Ketanserin (3-(2-(4-(4-fluorobenzoyl)piperidinol)ethyl)-2,4(1H,3H)-quinazolinedione) in cell membranes derived from CHO-K1 cells stably expressing recombinant human 5-HT2A receptor. Membranes were prepared from HEK 293 cell lines by the method described by Monsma et al., Molecular Pharmacology, Vol. 43 pp. 320-327 (1993), and from CHO-K1 cell lines as described by Bonhaus et al., Br J Pharmacol. June; 115(4):622-8 (1995).
(§2) For estimation of affinity at the 5-HT6 receptor, all determinations were made in assay buffer containing 50 mM Tris-HCl, 10 mM MgSO4, 0.5 mM EDTA, 1 mM ascorbic acid, pH 7.4 at 37° C., in a 250 microliter reaction volume. […]
(§3) Assay tubes containing [^3H] […] LSD or [^3H]Ketanserin were determined as radioactive counts per minute using Packard TopCount.
(§4) Displacement of [^3H]LSD or [^3H]Ketanserin from the binding sites was quantified by fitting concentration-binding data to a 4-parameter logistic equation: […]

For data set [2], the target named is T2, recombinant human 5-HT2A receptor (Homo sapiens, UniProt P28223).
T2 construct: expressed in transfected cells
T2 sequence (P28223 whole entry): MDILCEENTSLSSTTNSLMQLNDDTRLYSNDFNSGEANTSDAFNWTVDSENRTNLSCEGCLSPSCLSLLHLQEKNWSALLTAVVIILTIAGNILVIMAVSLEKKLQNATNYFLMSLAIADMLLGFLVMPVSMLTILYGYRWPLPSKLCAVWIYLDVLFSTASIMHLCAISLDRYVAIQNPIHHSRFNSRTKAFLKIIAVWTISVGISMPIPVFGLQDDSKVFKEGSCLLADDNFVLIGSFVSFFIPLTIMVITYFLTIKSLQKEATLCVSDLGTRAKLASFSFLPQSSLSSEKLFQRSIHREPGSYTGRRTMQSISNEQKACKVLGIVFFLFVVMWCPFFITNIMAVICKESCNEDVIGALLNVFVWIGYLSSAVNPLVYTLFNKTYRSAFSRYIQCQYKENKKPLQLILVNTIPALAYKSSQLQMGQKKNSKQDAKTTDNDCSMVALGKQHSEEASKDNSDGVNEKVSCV
In words: Radioligand binding, [3H]Ketanserin competition at 5-HT2A receptor. The conditions noted are these: membranes of CHO-K1 cells expressing recombinant human 5-HT2A receptor, 32° C., read-out: pKi for the 5-HT2A receptor (converted). Here is the method: as §1, §2, §3, §4

T1 sequence (P50406 whole entry): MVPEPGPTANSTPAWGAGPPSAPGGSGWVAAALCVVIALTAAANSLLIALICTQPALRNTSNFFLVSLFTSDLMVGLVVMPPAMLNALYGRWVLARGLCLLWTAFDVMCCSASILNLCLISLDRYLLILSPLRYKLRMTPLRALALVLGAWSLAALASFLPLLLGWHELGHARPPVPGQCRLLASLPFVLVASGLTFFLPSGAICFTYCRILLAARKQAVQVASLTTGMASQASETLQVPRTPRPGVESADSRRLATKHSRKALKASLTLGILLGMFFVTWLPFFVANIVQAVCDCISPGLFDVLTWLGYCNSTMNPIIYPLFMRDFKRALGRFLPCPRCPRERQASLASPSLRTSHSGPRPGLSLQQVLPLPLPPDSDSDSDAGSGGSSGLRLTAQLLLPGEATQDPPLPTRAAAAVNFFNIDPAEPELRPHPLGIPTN

`CNCC1CC(C)(O)c2ccc(S(=O)(=O)c3ccccc3)cc2O1` (centres unmarked) (as salt: trifluoroacetate) [Compound 4, 7-Benzenesulfonyl-4-methyl-2-methylaminomethyl-chroman-4-ol] registered a melting point of 163.9 to 165.3 °C.

Regarding `CNCC1CC(=O)c2ccc(S(=O)(=O)c3ccccc3)cc2O1` (centres unmarked) (as salt: TFA) [Compound 1, 7-Benzenesulfonyl-2-methylaminomethyl-chroman-4-one], the melting point is 157.8 to 189.6 °C.

The compound `C[C@H](O)C(=O)NC[C@H]1CCc2ccc(S(=O)(=O)c3ccccc3)cc2O1` (stereo in doubt) [Compound 30, (R)-N-(7-Benzenesulfonyl-chroman-2-ylmethyl)-2-hydroxy-propionamide] had a melting point of 129.5 to 131.5 °C.

As for `CNC[C@@H]1CCc2ccc(S(=O)(=O)c3ccccc3)cc2O1` [Compound 7, (S)-(7-Benzenesulfonyl-chroman-2-ylmethyl)-methyl-amine], the Ki in data set [1] was roughly 0.0001 µM; in data set [2], roughly 0.0562 µM.

For `CNC[C@H]1CCc2ccc(S(=O)(=O)c3cccc(F)c3)cc2O1` [Compound 35, (R)-[7-(3-Fluoro-benzenesulfonyl)-chroman-2-ylmethyl]-methyl-amine], the melting point fell in the range of 259 to 261 °C.

Take `CNCC1CCc2ccc(S(=O)(=O)c3ccccc3)cc2O1` (centres unmarked) (as salt: TFA) [Compound 3, (7-Benzenesulfonyl-chroman-2-ylmethyl)-methyl-amine]: the melting point lay within 196.2 to 198.2 °C.

`NC[C@H]1CCc2ccc(S(=O)(=O)c3cccc(F)c3)cc2O1` [Compound 46, (R)-C-[7-(3-Fluoro-benzenesulfonyl)-chroman-2-yl]-methylamine]: the melting point lay within 257.1 to 258.9 °C.
